{"source": "ChEMBL document CHEMBL6087487", "about": "“Discovery of a 2'-α-Fluoro-2'-β-C-(fluoromethyl) Purine Nucleotide Prodrug as a Potential Oral Anti-SARS-CoV-2 Agent” (J Med Chem, 2025)", "key": {"[1]": {"experiment": "Cytotoxicity against African green monkey Vero E6 cells incubated for 72 hrs by CCK8 assay", "type": "toxicity, cell-based, Vero C1008", "settings": "chlorocebus sabaeus"}, "[2]": {"tested_on": "Severe acute respiratory syndrome coronavirus 2", "experiment": "Inhibition of SARS-CoV-2 central replication transcription complex of nsp12/nsp7/nsp8(2) using RNA template as substrate assessed as decrease in RdRp polymerization at 3 mM pretreated for 10 mins followed by NTP addition measured after 20 mins by RNA extension assay relative to control", "settings": "time 30.0 min"}, "[3]": {"tested_on": "Severe acute respiratory syndrome coronavirus 2", "experiment": "Inhibition of SARS-CoV-2 central replication transcription complex of nsp12/nsp7/nsp8(2) using RNA template as substrate assessed as decrease in RdRp polymerization at 62.5 to 1000 uM by RNA extension assay", "settings": "dose 62.5-1000 µM"}, "[4]": {"experiment": "Cytotoxicity against HPAEpiC cells incubated for 72 hrs by CCK8 assay", "type": "toxicity, cell-based", "settings": "human"}, "Vero C1008": {"tested_on": "Vero C1008", "experiment": "Cytotoxicity against African green monkey Vero E6 cells at 100 uM incubated for 72 hrs by CCK8 assay", "type": "toxicity, cell-based", "settings": "chlorocebus sabaeus, vero c1008, 72 h"}, "[5]": {"target": "Nucleoprotein (Severe acute respiratory syndrome coronavirus 2) (UniProt P0DTC9)", "experiment": "Inhibition of SARS-CoV-2 N protein by Western blot analysis", "settings": "dose 1-250 nM"}, "SARS-CoV-2": {"tested_on": "SARS-CoV-2", "experiment": "Antiviral activity against SARS-CoV-2 Omicron BA.5 infected in K18-hACE2 transgenic mouse assessed as protection against viral infection compound administered 2 hrs post-infection and continued till 7 days post-infection", "type": "functional, organism-based", "settings": "Severe acute respiratory syndrome coronavirus 2, dose 20-60 mg/kg, time 166.0 hrs"}, "[6]": {"experiment": "Toxicity in K18-hACE2 transgenic mouse infected with SARS-CoV-2 Omicron BA.5 assessed as body weight change at 40 to 60 mg/kg compound administered 2 hrs post-infection and continued till 7 days post-infection", "type": "organism-based", "settings": "in vivo, 166 h, dose 40-60 mg/kg"}, "[7]": {"experiment": "Toxicity in K18-hACE2 transgenic mouse infected with SARS-CoV-2 Omicron BA.5 assessed as animal survival at 40 to 60 mg/kg compound administered 2 hrs post-infection and continued till 7 days post-infection", "type": "organism-based", "settings": "in vivo, 166 h, dose 40-60 mg/kg"}, "[8]": {"experiment": "Toxicity in K18-hACE2 transgenic mouse infected with SARS-CoV-2 Omicron BA.5 assessed as animal survival at 20 mg/kg compound administered 2 hrs post-infection and continued till 7 days post-infection", "type": "organism-based", "settings": "in vivo, 166 h"}, "[9]": {"experiment": "Acute toxicity in Sprague-Dawley rat assessed as animal mortality at 500 to 2000 mg/kg, po measured for 14 days", "type": "organism-based", "settings": "in vivo, 336 h, dose 500-2000 mg/kg, time 14 day"}, "[10]": {"experiment": "Acute toxicity in Sprague-Dawley rat assessed as side effects at 500 to 2000 mg/kg, po measured for 14 days", "type": "organism-based", "settings": "in vivo, 336 h, dose 500-2000 mg/kg, time 14 day"}, "[11]": {"experiment": "Acute toxicity in Sprague-Dawley rat assessed as body weight change at 500 to 2000 mg/kg, po measured for 14 days", "type": "organism-based", "settings": "in vivo, 336 h, dose 500-2000 mg/kg, time 14 day"}, "[12]": {"experiment": "Acute toxicity in Sprague-Dawley rat assessed as hematological change at 500 to 2000 mg/kg, po measured for 14 days", "type": "organism-based", "settings": "in vivo, 336 h, dose 500-2000 mg/kg, time 14 day"}, "[13]": {"experiment": "Acute toxicity in Sprague-Dawley rat assessed as blood biochemical change at 500 to 2000 mg/kg, po measured for 14 days", "type": "organism-based", "settings": "in vivo, 336 h, dose 500-2000 mg/kg, time 14 day"}, "[14]": {"experiment": "Acute toxicity in Sprague-Dawley rat assessed as damage in heart at 500 to 2000 mg/kg, po measured for 14 days by H and E staining based analysis", "type": "organism-based", "settings": "in vivo, 336 h, dose 500-2000 mg/kg, time 14 day"}, "[15]": {"experiment": "Acute toxicity in Sprague-Dawley rat assessed as damage in liver at 500 to 2000 mg/kg, po measured for 14 days by H and E staining based analysis", "type": "organism-based", "settings": "in vivo, 336 h, dose 500-2000 mg/kg, time 14 day"}, "[16]": {"experiment": "Acute toxicity in Sprague-Dawley rat assessed as damage in spleen at 500 to 2000 mg/kg, po measured for 14 days by H and E staining based analysis", "type": "organism-based", "settings": "in vivo, 336 h, dose 500-2000 mg/kg, time 14 day"}, "[17]": {"experiment": "Acute toxicity in Sprague-Dawley rat assessed as damage in lung at 500 to 2000 mg/kg, po measured for 14 days by H and E staining based analysis", "type": "organism-based", "settings": "in vivo, 336 h, dose 500-2000 mg/kg, time 14 day"}, "[18]": {"experiment": "Acute toxicity in Sprague-Dawley rat assessed as damage in kidney at 500 to 2000 mg/kg, po measured for 14 days by H and E staining based analysis", "type": "organism-based", "settings": "in vivo, 336 h, dose 500-2000 mg/kg, time 14 day"}, "[19]": {"experiment": "Acute toxicity in Sprague-Dawley rat assessed as drug tolerance upto 2000 mg/kg, po measured for 14 days", "type": "organism-based", "settings": "in vivo, 336 h, time 14 day"}, "[20]": {"experiment": "Prodrug conversion in Sprague-Dawley rat assessed as half life of nucleoside triphosphate at 40 mg/kg, po measured after 0.5 to 24 hrs by LC-MS/MS analysis", "type": "ADME, organism-based", "settings": "in vivo, time 0.5-24 hrs"}, "[21]": {"experiment": "Prodrug conversion in Sprague-Dawley rat assessed as Tmax of nucleoside triphosphate at 40 mg/kg, po measured after 0.5 to 24 hrs by LC-MS/MS analysis", "type": "ADME, organism-based", "settings": "in vivo, time 0.5-24 hrs"}, "[22]": {"experiment": "Prodrug conversion in Sprague-Dawley rat assessed as Cmax of nucleoside triphosphate at 40 mg/kg, po measured after 0.5 to 24 hrs by LC-MS/MS analysis", "type": "ADME, organism-based", "settings": "in vivo, time 0.5-24 hrs"}, "[23]": {"experiment": "Prodrug conversion in Sprague-Dawley rat assessed as AUClast of nucleoside triphosphate at 40 mg/kg, po measured after 0.5 to 24 hrs by LC-MS/MS analysis", "type": "ADME, organism-based", "settings": "in vivo, time 0.5-24 hrs"}, "[24]": {"experiment": "Prodrug conversion in Sprague-Dawley rat assessed as AUC (0 to infinity) of nucleoside triphosphate at 40 mg/kg, po measured after 0.5 to 24 hrs by LC-MS/MS analysis", "type": "ADME, organism-based", "settings": "in vivo, time 0.5-24 hrs"}}, "note": "Activity calls are given as the source filed them. The rule behind the calls is not given here."}
{"smiles": "CCC(CC)COC(=O)[C@H](C)N[P@](=O)(OC[C@H]1O[C@@](C#N)(c2ccc3c(N)ncnn23)[C@H](O)[C@@H]1O)Oc1ccccc1", "note": "[REMDESIVIR]", "values": [{"measurement": "CC50 at 72 h", "setting": "[1]", "result": 42, "unit": "µM"}]}
{"smiles": "CNc1nc(N)nc2c1ncn2[C@@H]1O[C@H](COP(=O)(O)OP(=O)(O)OP(=O)(O)OP(=O)(O)O)[C@@H](O)[C@]1(F)CF", "values": [{"measurement": "inhibition", "setting": "[2]", "result": 100, "unit": "%"}, {"measurement": "inhibition", "setting": "[3]", "result": "inactive"}]}
{"smiles": "CNc1nc(N)nc2c1ncn2[C@@H]1O[C@H](CO[P@@](=O)(N[C@@H](C)C(=O)OC(C)C)Oc2ccccc2)[C@@H](O)[C@]1(F)CF.O=S(=O)(O)O", "values": [{"measurement": "CC50 at 72 h", "setting": "[4]", "result": "> 200", "unit": "µM"}, {"measurement": "Activity", "setting": "Vero C1008", "result": "Non-toxic"}, {"measurement": "inhibition", "setting": "[5]", "result": "Dose-dependent-effect"}, {"measurement": "Activity", "setting": "SARS-CoV-2", "result": "Dose-dependent-effect"}, {"measurement": "Activity", "setting": "[6]", "result": "Non-toxic"}, {"measurement": "Survival", "setting": "[7]", "result": 100, "unit": "%"}, {"measurement": "Survival", "setting": "[8]", "result": "> 50", "unit": "%"}, {"measurement": "Activity", "setting": "[9]", "result": "Non-toxic"}, {"measurement": "Activity", "setting": "[10]", "result": "Non-toxic"}, {"measurement": "Activity", "setting": "[11]", "result": "Non-toxic"}, {"measurement": "Activity", "setting": "[12]", "result": "Non-toxic"}, {"measurement": "Activity", "setting": "[13]", "result": "Non-toxic"}, {"measurement": "Activity", "setting": "[14]", "result": "Non-toxic"}, {"measurement": "Activity", "setting": "[15]", "result": "Non-toxic"}, {"measurement": "Activity", "setting": "[16]", "result": "Non-toxic"}, {"measurement": "Activity", "setting": "[17]", "result": "Non-toxic"}, {"measurement": "Activity", "setting": "[18]", "result": "Non-toxic"}, {"measurement": "Activity", "setting": "[19]", "result": "Non-toxic"}, {"measurement": "t1/2", "setting": "[20]", "result": 45.7, "unit": "h"}, {"measurement": "Tmax", "setting": "[21]", "result": 2.67, "unit": "h"}, {"measurement": "Cmax", "setting": "[22]", "result": 6.5, "unit": "µg/g"}, {"measurement": "AUClast", "setting": "[23]", "result": 66.13, "unit": "µg·h/g"}, {"measurement": "AUC", "setting": "[24]", "result": 223, "unit": "µg·h/g"}]}
